Measured values reported in PubChem BioAssay (NCI).
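These data come from cells grown in 96-well plates and exposed to compound for 48 hours at five concentrations. The concentration for 50% growth inhibition is given as GI50. TGI is the concentration that stops growth completely.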

Experiments:
Assay in all cases: NCI-60 cell line screen, 48 h
CCRF-CEM leukemia = tested on: CCRF-CEM leukemia
MOLT-4 leukemia = tested on: MOLT-4 leukemia
HCT-15 colon = tested on: HCT-15 colon
COLO 205 colon = tested on: COLO 205 colon
NCI-H226 lung = tested on: NCI-H226 lung
M14 melanoma = tested on: M14 melanoma
UO-31 renal = tested on: UO-31 renal
KM12 colon = tested on: KM12 colon
HCT-116 colon = tested on: HCT-116 colon
MALME-3M melanoma = tested on: MALME-3M melanoma
OVCAR-8 ovarian = tested on: OVCAR-8 ovarian
SW-620 colon = tested on: SW-620 colon
MDA-MB-231 breast = tested on: MDA-MB-231 breast
BT-549 breast = tested on: BT-549 breast
SK-MEL-2 melanoma = tested on: SK-MEL-2 melanoma
HS 578T breast = tested on: HS 578T breast
HOP-92 NSCLC = tested on: HOP-92 NSCLC
A498 renal = tested on: A498 renal
RXF 393 renal = tested on: RXF 393 renal
MDA-MB-435 = tested on: MDA-MB-435
LOX IMVI melanoma = tested on: LOX IMVI melanoma
A549 NSCLC = tested on: A549 NSCLC
CAKI-1 renal = tested on: CAKI-1 renal
MCF7 breast = tested on: MCF7 breast
PC-3 prostate = tested on: PC-3 prostate
HL-60(TB) leukemia = tested on: HL-60(TB) leukemia
T-47D breast = tested on: T-47D breast
SK-MEL-28 melanoma = tested on: SK-MEL-28 melanoma
SF-539 CNS = tested on: SF-539 CNS
NCI/ADR-RES ovarian = tested on: NCI/ADR-RES ovarian
OVCAR-4 ovarian = tested on: OVCAR-4 ovarian
NCI-H460 lung = tested on: NCI-H460 lung
IGROV1 ovarian = tested on: IGROV1 ovarian
ACHN renal = tested on: ACHN renal
DU-145 prostate = tested on: DU-145 prostate
SF-295 CNS = tested on: SF-295 CNS
HCC-2998 colon = tested on: HCC-2998 colon
OVCAR-5 ovarian = tested on: OVCAR-5 ovarian
SR leukemia = tested on: SR leukemia
SN12C renal = tested on: SN12C renal
786-0 renal = tested on: 786-0 renal
OVCAR-3 ovarian = tested on: OVCAR-3 ovarian
NCI-H23 lung = tested on: NCI-H23 lung
HOP-62 NSCLC = tested on: HOP-62 NSCLC
HT29 colon = tested on: HT29 colon
K-562 leukemia = tested on: K-562 leukemia
SNB-75 CNS = tested on: SNB-75 CNS
U251 CNS = tested on: U251 CNS
SF-268 CNS = tested on: SF-268 CNS
SNB-19 CNS = tested on: SNB-19 CNS
SK-MEL-5 melanoma = tested on: SK-MEL-5 melanoma
EKVX NSCLC = tested on: EKVX NSCLC
UACC-257 melanoma = tested on: UACC-257 melanoma
SK-OV-3 ovarian = tested on: SK-OV-3 ovarian
UACC-62 melanoma = tested on: UACC-62 melanoma
TK-10 renal = tested on: TK-10 renal
RPMI-8226 leukemia = tested on: RPMI-8226 leukemia

## C=C(C)[C@@H]1CC[C@]2(COS(C)(=O)=O)CC[C@]3(C)[C@H](CC[C@@H]4[C@@]5(C)CCCNC(C)(C)[C@@H]5CC[C@]43C)[C@@H]12
CCRF-CEM leukemia
  GI50: 1.76 µM
  TGI: 4.42 µM
MOLT-4 leukemia
  GI50: 1.65 µM
  TGI: 3.62 µM
HCT-15 colon
  GI50: 1.57 µM
  TGI: 3.06 µM
COLO 205 colon
  GI50: 1.73 µM
  TGI: 3.27 µM
NCI-H226 lung
  GI50: 1.77 µM
  TGI: 3.4 µM
M14 melanoma
  GI50: 1.78 µM
  TGI: 3.47 µM
UO-31 renal
  GI50: 1.27 µM
  TGI: 2.63 µM
KM12 colon
  GI50: 1.83 µM
  TGI: 3.39 µM
HCT-116 colon
  GI50: 1.72 µM
  TGI: 3.24 µM
MALME-3M melanoma
  GI50: 1.77 µM
  TGI: 3.73 µM
OVCAR-8 ovarian
  GI50: 1.93 µM
  TGI: 3.77 µM
SW-620 colon
  GI50: 1.68 µM
  TGI: 3.34 µM
MDA-MB-231 breast
  GI50: 1.8 µM
  TGI: 3.31 µM
BT-549 breast
  GI50: 1.99 µM
  TGI: 4.08 µM
SK-MEL-2 melanoma
  GI50: 1.69 µM
  TGI: 3.54 µM
HS 578T breast
  GI50: 1.85 µM
  TGI: 3.92 µM
HOP-92 NSCLC
  GI50: 1.3 µM
  TGI: 2.81 µM
A498 renal
  GI50: 1.82 µM
  TGI: 6.16 µM
RXF 393 renal
  GI50: 1.66 µM
  TGI: 3.08 µM
MDA-MB-435
  GI50: 1.64 µM
  TGI: 3.04 µM
LOX IMVI melanoma
  GI50: 1.09 µM
  TGI: 2.37 µM
A549 NSCLC
  GI50: 1.82 µM
  TGI: 3.63 µM
CAKI-1 renal
  GI50: 1.67 µM
  TGI: 3.19 µM
MCF7 breast
  GI50: 1.59 µM
  TGI: 3.5 µM
PC-3 prostate
  GI50: 1.59 µM
  TGI: 3.43 µM
HL-60(TB) leukemia
  GI50: 1.62 µM
  TGI: 3.39 µM
T-47D breast
  GI50: 1.78 µM
  TGI: 4 µM
SK-MEL-28 melanoma
  GI50: 1.7 µM
  TGI: 3.22 µM
SF-539 CNS
  GI50: 1.66 µM
  TGI: 3.08 µM
NCI/ADR-RES ovarian
  GI50: 1.72 µM
  TGI: 3.27 µM
OVCAR-4 ovarian
  GI50: 1.82 µM
  TGI: 3.65 µM
NCI-H460 lung
  GI50: 1.8 µM
  TGI: 3.49 µM
IGROV1 ovarian
  GI50: 1.77 µM
  TGI: 3.57 µM
ACHN renal
  GI50: 1.81 µM
  TGI: 3.2 µM
DU-145 prostate
  GI50: 1.81 µM
  TGI: 3.29 µM
SF-295 CNS
  GI50: 1.82 µM
  TGI: 3.33 µM
HCC-2998 colon
  GI50: 1.74 µM
  TGI: 3.16 µM
OVCAR-5 ovarian
  GI50: 1.68 µM
  TGI: 3.1 µM
SR leukemia
  GI50: 1.56 µM
  TGI: 3.52 µM
SN12C renal
  GI50: 2.28 µM
  TGI: 5.48 µM
786-0 renal
  GI50: 1.8 µM
  TGI: 3.27 µM
OVCAR-3 ovarian
  GI50: 1.79 µM
  TGI: 3.22 µM
NCI-H23 lung
  GI50: 1.68 µM
  TGI: 3.34 µM
HOP-62 NSCLC
  GI50: 1.67 µM
  TGI: 3.21 µM
HT29 colon
  GI50: 1.83 µM
  TGI: 3.55 µM
K-562 leukemia
  GI50: 1.16 µM
  TGI: 3.06 µM
SNB-75 CNS
  GI50: 1.37 µM
  TGI: 3.08 µM
U251 CNS
  GI50: 1.75 µM
  TGI: 3.29 µM
SF-268 CNS
  GI50: 2.61 µM
  TGI: 6.49 µM
SNB-19 CNS
  GI50: 1.75 µM
  TGI: 3.28 µM
SK-MEL-5 melanoma
  GI50: 1.73 µM
  TGI: 3.13 µM
EKVX NSCLC
  GI50: 1.58 µM
  TGI: 3.14 µM
UACC-257 melanoma
  GI50: 1.99 µM
  TGI: 4.27 µM
SK-OV-3 ovarian
  GI50: 6.44 µM
  TGI: 19.6 µM
UACC-62 melanoma
  GI50: 1.72 µM
  TGI: 3.14 µM
TK-10 renal
  GI50: 1.68 µM
  TGI: 3.58 µM
RPMI-8226 leukemia
  GI50: 2.05 µM
  TGI: 4.62 µM
